{"source": "patent US12403129B2", "about": "“Isotope-enriched 3-amino-1-propanesulfonic acid derivatives for the treatment of cerebrovascular disease” (RISEN (SUZHOU) PHARMA TECH CO., LTD., priority 2021, dated 2025)", "key": {"[1]": {"tested_on": "neuronal cells in hippocampal CA1 area and CA3 area and cerebral cortex", "assay": "Neuronal cell morphology in ischemia-reperfusion dementia mice", "type": "in vivo, C57BL/6J mice", "details": "compared with the model group", "protocol": "(§1) 140 healthy C57BL/6J mice, including 70 males and 70 females, were used. 1% Pentobarbital Sodium (50 mg/kg) was injected intraperitoneally to anesthetize the mice. The back position was fixed, the neck hair was removed, and the common carotid arteries were cut along the middle of the neck after iodophor disinfection. The common carotid arteries were separated, clamped with a noninvasive artery clamp for 15 minutes, released for 10 minutes, and then clamped for 10 minutes. Penicillin powder was then applied to suture muscles and skin. The sham operation group was not clamped, and other operations were the same as for the model group. […] Mice were divided into 6 groups: sham operation group, model group, positive control group (donepezil) and test compound group (different doses). Test compounds were administered by gavage to each group on the next day of modeling. The compound group was given compounds once a day in the morning and evening, and the volume of each gavage was 10 ml/kg. Half of the animals in the sham operation group and the model group were given the same amount of distilled water, and half of the animals were given the same amount of 1% sodium carboxymethylcellulose solution. […]\n(§2) The main pathological index included: investigation of the improvement of learning and memory impairment by the compound in the pathogenic model of cerebral ischemia-reperfusion using behavioral experimental methods such as Y maze, new object discrimination, spontaneous activity, Morris water maze and passive avoidance experiment (dark avoidance); investigation of the ultrastructure of nerve cells (including nucleus, mitochondria and synapse) by HE staining and immunofluorescence; detection of expression of synaptic associated proteins SYP and PSD95 by Western blotting; and detection of expression of apoptosis-related proteins Bcl-2 and Bax by Western blotting. […] Experimental results were analyzed statistically using IBM SPSS 21.0 software. […]"}, "MBP": {"tested_on": "MBP", "assay": "MBP expression in ischemia-reperfusion dementia mice", "type": "in vivo, C57BL/6J mice", "details": "compared with the model group", "protocol": "140 healthy C57BL/6J mice, including 70 males and 70 females, were used. 1% Pentobarbital Sodium (50 mg/kg) was injected intraperitoneally to anesthetize the mice. The back position was fixed, the neck hair was removed, and the common carotid arteries were cut along the middle of the neck after iodophor disinfection. The common carotid arteries were separated, clamped with a noninvasive artery clamp for 15 minutes, released for 10 minutes, and then clamped for 10 minutes. Penicillin powder was then applied to suture muscles and skin. The sham operation group was not clamped, and other operations were the same as for the model group. […]\nas §2"}, "SYP [2]": {"tested_on": "SYP", "assay": "SYP expression in hippocampus by Western blotting, ischemia-reperfusion dementia mice", "type": "in vivo, C57BL/6J mice", "protocol": "Compound 4, 85 mg/kg, bid; D. Compound 4, 170 mg/kg, bid; E. Compound 4, 340 mg/kg, bid; F. Donepezil, 1.3 mg/kg. Compared with sham operation group, ## P<0.01; Compared with the model group, * P<0.05.\nas §1"}, "PSD95 [3]": {"tested_on": "PSD95", "assay": "PSD95 expression in hippocampus by Western blotting, ischemia-reperfusion dementia mice", "type": "in vivo, C57BL/6J mice", "protocol": "Compound 4, 85 mg/kg, bid; D. Compound 4, 170 mg/kg, bid; E. Compound 4, 340 mg/kg, bid; F. Donepezil, 1.3 mg/kg. Compared with sham operation group: ### P<0.001; Compared with the model group: ** P<0.01, *** P<0.001.\nas §1, with “ml/kg.” for “ml/kg. Half of the animals in the sham operation group and the model group were given the same amount of distilled water, and half of the animals were given the same amount of 1% sodium carboxymethylcellulose solution.”"}, "ATP": {"tested_on": "ATP", "assay": "ATP content of hippocampus and cortex, multiple cerebral infarction dementia rats", "type": "in vivo, SD rats", "details": "compared with the model group, p<0.05", "protocol": "(§3) 135 SPF grade SD rats (75 females, 60 males, weighing 200-220 g) were used. Anesthesia was performed by intraperitoneal injection of 3.5% chloral hydrate (350 mg/kg). After dorsal fixation, neck hair removal and iodophor disinfection, animals were cut along the middle of the neck to separate the right common carotid artery, external carotid artery and internal carotid artery. […]\n(§4) The main pathological indexes included investigation of the improvement of learning and memory impairment in the dementia model animal by test compound using behavioral experimental methods such as Y maze, new object discrimination, Morris water maze and passive avoidance test (dark avoidance); investigation of the protective effect of test compound on mitochondria by detecting the content of ATP in hippocampus and cortex of rats; and investigation of levels of oxidative stress in the rat brain by measuring activity of superoxide dismutase (SOD, which is an oxygen free-radical scavenger), glutathione peroxidase (GSH-Px, which scavenges lipid peroxides induced by reactive oxygen species and —OH), nitric oxide synthase (NOS), malondialdehyde (MDA), and nitric oxide (NO). […] Expression of synaptic associated proteins SYP and PSD95 was detected by Western blotting. […] Experimental results were statistically analyzed using IBM SPSS 21.0 software. […]"}, "SYP [4]": {"tested_on": "SYP", "assay": "SYP expression by Western blotting, multiple cerebral infarction dementia rats", "type": "in vivo, SD rats", "details": "compared with the model group, p<0.05", "protocol": "as §3, §4"}, "PSD95 [5]": {"tested_on": "PSD95", "assay": "PSD95 expression by Western blotting, multiple cerebral infarction dementia rats", "type": "in vivo, SD rats", "details": "compared with the model group, p<0.05", "protocol": "as §3, §4"}, "[6]": {"details": "cited from earlier work"}, "[7]": {"details": "Test group vs model group, n = 15-17, dose not stated"}, "[8]": {"details": "2-h time point, oral, 0.72 mmol/kg"}}, "note": "Entries after “also recorded” stand apart in the source; their conditions may differ."}
{"smiles": "[2H]C([2H])(CCS(=O)(=O)O)NC(=O)[C@@H](N)C(C)C", "note": "[compound 4, 3-((L-valyl)amino)-3,3-dideuterium-1-propanesulfonic Acid]", "values": [{"measurement": "arrangement and morphology of neuronal cells in hippocampal CA1 area and CA3 area", "setting": "[1]", "result": "significantly improved"}, {"measurement": "deep staining pyknosis of nuclei in cerebral cortex", "setting": "[1]", "result": "significantly reduced"}, {"measurement": "deep staining pyknosis of nuclei", "setting": "[1]; hippocampal CA1 and CA3 area", "result": "significantly reduced"}, {"measurement": "expression of MBP in hippocampal CA1 area and cerebral cortex", "setting": "MBP", "result": "increased"}, {"measurement": "SYP expression, p compared with model group", "setting": "SYP [2]; [7]", "result": "p < 0.05"}, {"measurement": "expression of SYP", "setting": "SYP [2]; compared with the model group", "result": "increased"}, {"measurement": "PSD95 expression, p compared with model group", "setting": "PSD95 [3]; [7]", "result": "p < 0.001"}, {"measurement": "expression of PSD95", "setting": "PSD95 [3]; compared with the model group", "result": "increased"}, {"measurement": "ATP content of hippocampus and cerebral cortex", "setting": "ATP", "result": "significantly increased"}, {"measurement": "SYP expression", "setting": "SYP [4]", "result": "significantly increased"}, {"measurement": "PSD95 expression", "setting": "PSD95 [5]", "result": "significantly increased"}, {"measurement": "concentration of metabolite (2-carboxy-1-ethanesulfonic acid) in plasma compared to 3APS (of natural abundance)", "setting": "[6]; [8]", "result": "much lower"}, {"measurement": "plasma drug concentration compared to 3APS (of natural abundance)", "setting": "[6]; [8]", "result": "higher"}, {"measurement": "plasma drug exposure compared to 3APS (of natural abundance)", "setting": "[6]; mole-equivalent oral dose (0.72 mmol/kg), mouse plasma", "result": "improved plasma drug exposure significantly; also recorded: even greater improvement of drug exposure"}, {"measurement": "increase of Cmax for the drug concentration", "setting": "[6]; mole-equivalent oral dose, mouse plasma, versus 3APS of natural abundance", "result": "~2", "unit": "fold"}, {"measurement": "drug metabolism / metabolic profile compared to 3APS", "setting": "[6]; mole-equivalent oral dose, mouse", "result": "delayed drug metabolism"}, {"measurement": "conversion of prodrug to compound 1 in the subject", "setting": "[6]; oral, mouse plasma", "result": "converted easily to compound 1"}]}
